PubChem BioAssay (NCI)
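Exposure lasted 48 hours, with cells grown in 96-well plates and compounds tested at five concentrations. GI50: concentration for 50% inhibition of growth. TGI: concentration producing complete growth inhibition.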

Key:
Assay in all cases: NCI-60 cell line screen, 48 h
786-0 renal = tested on: 786-0 renal
A498 renal = tested on: A498 renal
A549 NSCLC = tested on: A549 NSCLC
ACHN renal = tested on: ACHN renal
BT-549 breast = tested on: BT-549 breast
CAKI-1 renal = tested on: CAKI-1 renal
CCRF-CEM leukemia = tested on: CCRF-CEM leukemia
COLO 205 colon = tested on: COLO 205 colon
DU-145 prostate = tested on: DU-145 prostate
EKVX NSCLC = tested on: EKVX NSCLC
HCC-2998 colon = tested on: HCC-2998 colon
HCT-116 colon = tested on: HCT-116 colon
HCT-15 colon = tested on: HCT-15 colon
HL-60(TB) leukemia = tested on: HL-60(TB) leukemia
HOP-62 NSCLC = tested on: HOP-62 NSCLC
HOP-92 NSCLC = tested on: HOP-92 NSCLC
HS 578T breast = tested on: HS 578T breast
HT29 colon = tested on: HT29 colon
IGROV1 ovarian = tested on: IGROV1 ovarian
K-562 leukemia = tested on: K-562 leukemia
KM12 colon = tested on: KM12 colon
LOX IMVI melanoma = tested on: LOX IMVI melanoma
M14 melanoma = tested on: M14 melanoma
MALME-3M melanoma = tested on: MALME-3M melanoma
MCF7 breast = tested on: MCF7 breast
MDA-MB-231 breast = tested on: MDA-MB-231 breast
MDA-MB-435 = tested on: MDA-MB-435
MDA-MB-468 breast = tested on: MDA-MB-468 breast
MOLT-4 leukemia = tested on: MOLT-4 leukemia
NCI-H226 lung = tested on: NCI-H226 lung
NCI-H23 lung = tested on: NCI-H23 lung
NCI-H460 lung = tested on: NCI-H460 lung
NCI-H522 lung = tested on: NCI-H522 lung
OVCAR-3 ovarian = tested on: OVCAR-3 ovarian
OVCAR-4 ovarian = tested on: OVCAR-4 ovarian
OVCAR-5 ovarian = tested on: OVCAR-5 ovarian
OVCAR-8 ovarian = tested on: OVCAR-8 ovarian
PC-3 prostate = tested on: PC-3 prostate
RPMI-8226 leukemia = tested on: RPMI-8226 leukemia
RXF 393 renal = tested on: RXF 393 renal
SF-268 CNS = tested on: SF-268 CNS
SF-295 CNS = tested on: SF-295 CNS
SF-539 CNS = tested on: SF-539 CNS
SK-MEL-2 melanoma = tested on: SK-MEL-2 melanoma
SK-MEL-28 melanoma = tested on: SK-MEL-28 melanoma
SK-MEL-5 melanoma = tested on: SK-MEL-5 melanoma
SK-OV-3 ovarian = tested on: SK-OV-3 ovarian
SN12C renal = tested on: SN12C renal
SNB-19 CNS = tested on: SNB-19 CNS
SNB-75 CNS = tested on: SNB-75 CNS
SR leukemia = tested on: SR leukemia
SW-620 colon = tested on: SW-620 colon
T-47D breast = tested on: T-47D breast
TK-10 renal = tested on: TK-10 renal
U251 CNS = tested on: U251 CNS
UACC-257 melanoma = tested on: UACC-257 melanoma
UACC-62 melanoma = tested on: UACC-62 melanoma
UO-31 renal = tested on: UO-31 renal

In the case of `CN1CCN(c2ccc(C(=O)/C=C/c3cc(Br)ccc3F)cc2)CC1`, the GI50 (786-0 renal) is reported as 10 µM, the TGI (786-0 renal) is reported as 22.4 µM and the GI50 (A498 renal) is reported as 17 µM. The TGI (A498 renal) was 31.7 µM, the GI50 (A549 NSCLC) was 4.38 µM and the TGI (A549 NSCLC) was 16.5 µM. For the same molecule, the GI50 (ACHN renal) was 13.4 µM, the TGI (ACHN renal) was 29.5 µM and the GI50 (BT-549 breast) was 3.58 µM. The TGI (BT-549 breast) was 12.2 µM, the GI50 (CAKI-1 renal) was 12.1 µM and the TGI (CAKI-1 renal) was 24.6 µM. It also gave a GI50 (CCRF-CEM leukemia) of 3.44 µM, a TGI (CCRF-CEM leukemia) of 15.6 µM and a GI50 (COLO 205 colon) of 11.8 µM. The TGI (COLO 205 colon) was 30.1 µM, the GI50 (DU-145 prostate) was 11.1 µM and the TGI (DU-145 prostate) was 23 µM. For the same molecule, the GI50 (EKVX NSCLC) was 13.3 µM, the TGI (EKVX NSCLC) was 26.4 µM and the GI50 (HCC-2998 colon) was 2.76 µM. It also gave a TGI (HCC-2998 colon) of 7.91 µM, a GI50 (HCT-116 colon) of 1.79 µM and a TGI (HCT-116 colon) of 3.93 µM. For the same molecule, the GI50 (HCT-15 colon) was 3.43 µM, the TGI (HCT-15 colon) was 14.7 µM and the GI50 (HL-60(TB) leukemia) was 2.77 µM. The TGI (HL-60(TB) leukemia) was 14.5 µM, the GI50 (HOP-62 NSCLC) was 16.2 µM and the TGI (HOP-62 NSCLC) was 31.5 µM. For the same molecule, the GI50 (HOP-92 NSCLC) was 6.71 µM, the TGI (HOP-92 NSCLC) was 21.9 µM and the GI50 (HS 578T breast) was 13.3 µM. It also gave a TGI (HS 578T breast) of 38.8 µM, a GI50 (HT29 colon) of 2.87 µM and a TGI (HT29 colon) of 10.9 µM. For the same molecule, the GI50 (IGROV1 ovarian) was 12.8 µM, the TGI (IGROV1 ovarian) was 26.6 µM and the GI50 (K-562 leukemia) was 2.28 µM. It also gave a TGI (K-562 leukemia) of 11.8 µM, a GI50 (KM12 colon) of 2.69 µM and a TGI (KM12 colon) of 9.23 µM. The GI50 (LOX IMVI melanoma) was 3.2 µM, the TGI (LOX IMVI melanoma) was 12.5 µM and the GI50 (M14 melanoma) was 6.38 µM. For the same molecule, the TGI (M14 melanoma) was 19.7 µM, the GI50 (MALME-3M melanoma) was 15.3 µM and the TGI (MALME-3M melanoma) was 29.4 µM. For the same molecule, the GI50 (MCF7 breast) was 2.67 µM, the TGI (MCF7 breast) was 11.5 µM and the GI50 (MDA-MB-231 breast) was 13.2 µM. It also gave a TGI (MDA-MB-231 breast) of 30 µM, a GI50 (MDA-MB-435) of 3.78 µM and a TGI (MDA-MB-435) of 13.5 µM. The GI50 (MDA-MB-468 breast) was 2.51 µM, the TGI (MDA-MB-468 breast) was 9.77 µM and the GI50 (MOLT-4 leukemia) was 3.69 µM. It also gave a TGI (MOLT-4 leukemia) of 16.8 µM, a GI50 (NCI-H226 lung) of 12.7 µM and a TGI (NCI-H226 lung) of 27.3 µM. It also gave a GI50 (NCI-H23 lung) of 13.5 µM, a TGI (NCI-H23 lung) of 27.3 µM and a GI50 (NCI-H460 lung) of 15.6 µM. The TGI (NCI-H460 lung) was 31.1 µM, the GI50 (NCI-H522 lung) was 13.5 µM and the TGI (NCI-H522 lung) was 27.1 µM. It also gave a GI50 (OVCAR-3 ovarian) of 5.81 µM, a TGI (OVCAR-3 ovarian) of 18.2 µM and a GI50 (OVCAR-4 ovarian) of 11.3 µM. The TGI (OVCAR-4 ovarian) was 23.9 µM, the GI50 (OVCAR-5 ovarian) was 18.6 µM and the TGI (OVCAR-5 ovarian) was 35.9 µM. It also gave a GI50 (OVCAR-8 ovarian) of 13.2 µM, a TGI (OVCAR-8 ovarian) of 26 µM and a GI50 (PC-3 prostate) of 6.24 µM. For the same molecule, the TGI (PC-3 prostate) was 21.3 µM, the GI50 (RPMI-8226 leukemia) was 1.84 µM and the TGI (RPMI-8226 leukemia) was 6.07 µM. The GI50 (RXF 393 renal) was 1.27 µM, the TGI (RXF 393 renal) was 13.7 µM and the GI50 (SF-268 CNS) was 15.1 µM. For the same molecule, the TGI (SF-268 CNS) was 31.6 µM, the GI50 (SF-295 CNS) was 15.2 µM and the TGI (SF-295 CNS) was 28.7 µM. The GI50 (SF-539 CNS) was 7.05 µM, the TGI (SF-539 CNS) was 21.7 µM and the GI50 (SK-MEL-2 melanoma) was 14.5 µM. The TGI (SK-MEL-2 melanoma) was 27.6 µM, the GI50 (SK-MEL-28 melanoma) was 19.7 µM and the TGI (SK-MEL-28 melanoma) was 36.2 µM. For the same molecule, the GI50 (SK-MEL-5 melanoma) was 12.9 µM, the TGI (SK-MEL-5 melanoma) was 25.7 µM and the GI50 (SK-OV-3 ovarian) was 14.7 µM. It also gave a TGI (SK-OV-3 ovarian) of 28.6 µM, a GI50 (SN12C renal) of 11.2 µM and a TGI (SN12C renal) of 27.2 µM. For the same molecule, the GI50 (SNB-19 CNS) was 15.1 µM, the TGI (SNB-19 CNS) was 29.5 µM and the GI50 (SNB-75 CNS) was 3.25 µM. The TGI (SNB-75 CNS) was 16.6 µM, the GI50 (SR leukemia) was 2.58 µM and the TGI (SR leukemia) was 10.7 µM. The GI50 (SW-620 colon) was 3.52 µM, the TGI (SW-620 colon) was 14.2 µM and the GI50 (T-47D breast) was 15 µM. It also gave a TGI (T-47D breast) of 47.3 µM, a GI50 (TK-10 renal) of 15 µM and a TGI (TK-10 renal) of 28.3 µM. The GI50 (U251 CNS) was 5.91 µM, the TGI (U251 CNS) was 18.9 µM and the GI50 (UACC-257 melanoma) was 15.5 µM. It also gave a TGI (UACC-257 melanoma) of 29.5 µM, a GI50 (UACC-62 melanoma) of 15.1 µM and a TGI (UACC-62 melanoma) of 29.9 µM. It also gave a GI50 (UO-31 renal) of 8.55 µM and a TGI (UO-31 renal) of 21.5 µM.
